Entries after “also recorded” stand apart in the source; their conditions may differ.
Key:
GLUTag cells = assay: GLP-1 secretion from cultured GLUTag cells treated with LPA and/or LPAR antagonist; assay type: cell-based, mouse; conditions: 10 μM antagonist plus 2.5 μM LPA
Method: We have grown GLUTag cells in culture to test effects of various LPA species and the LPAR 1/2/3 inhibitor Ki-16425. GLUTag cells are a well characterized L-cell line derived from a mouse intestinal tumour, which have been widely used to study the regulation of GLP-1. Briefly, GLUTag cells were grown until 80-90% confluent. Complete medium, containing fetal bovine serum, was replaced with medium containing charcoal[…] dextran treated serum, which removes lipids and hormones that could interfere with testing. […] This indicates a direct inhibitory effect of LPA at physiologically relevant levels on GLP-1 secretion by L-cells, and the ability of a commercially available LPAR antagonist to prevent this.
Experimental Protocol. Briefly, GLUTag cells were grown until 70-80% confluent. Complete medium (low glucose DMEM), containing fetal bovine serum, was replaced with medium containing charcoal-dextran treated serum, which removes lipids and hormones that could interfere with testing. Cells were then treated with medium containing either DMSO as vehicle control (0.1% v/v), 2.5 μM LPA, 10 μM LPAR antagonist, or a combination of the LPA species and inhibitors. For cells treated with both LPA plus LPAR inhibitor: cells were pre-treated with LPA for 30 minutes and then 10 uM LPAR inhibitor was added to the respective wells for a further 2 hours. For cells treated with LPA only, or vehicle only, the total treatment time was 2.5 hours. For cells treated with antagonist only, the treatment time was 2 hours.

GLP-1 [1] = assay: Circulating GLP-1 in mice injected with LPA, with or without LPAR antagonist pre-treatment; assay type: in vivo; conditions: for prevention of LPA-induced decrease in plasma GLP-1: 5 mg/kg i.p. 10 min before 50 mg/kg 1-oleoyl-2-hydroxy-LPA, n=3 (Example 3, FIG. 4)
Method: We injected mice i.p. with vehicle (10% DMSO in isotonic saline) or 50 mg/kg of 1-oleoyl-2-hydroxy-LPA. Half of the mice injected with LPA were pre-injected with 5 mg/kg Ki-16425 10 minutes prior to receiving LPA. Thirty minutes later, samples of blood were taken by cardiac puncture, and circulating active GLP-1 levels in plasma were analysed by enzyme linked immunosorbent assay.
(§1) The experimental protocol was as follows: • 1. Mice were administered an LPAR antagonist drug, either by oral gavage (for BMS986020, SARI 00842, AM966, AM095, or H2L51863030), or by i.p. injection (for Ki-16425, and LPA2-antagonistl) at the doses indicated in the table below. • 2. Control mice were administered only the vehicle (a 10% DMSO solution) given via the same route as the comparison drug was administered. • 3. Ten minutes later, mice were injected i.p. either with isotonic saline, or with 50 mg/kg LPA. • 4. Thirty minutes later, mice were euthanized by cervical dyslocation, and blood was collected from the heart for preparation of serum that was stored at −80C until it was analyzed for total GLP-1 concentration by ELISA assay using a GLP-1 enzyme immunoassay kit.

GLP-1 [2] = assay: Blood GLP-1 in RT-SAKO mice (elevated endogenous LPA) treated with Ki-16425; assay type: in vivo; conditions: 30 minutes after injection
Excerpt: Our laboratory has created a new genetic mouse model to study the isolated effects of obesity on kidney health. This model was not created to test LPA metabolism or to study GLP-1 regulation, but we have made important discoveries on these topics. We have made mice that lack the enzyme adipose triglyceride lipase (ATGL) in renal tubule cells, and have named these mice renal tubule-specific adipose triglyceride lipase knockout (or RT-SAKO) mice. These mice develop fatty kidneys, and as a side effect of changes in kidney cell metabolism, their kidneys make more LPA. As a result, RT-SAKO mice develop elevations in blood lysophosphatidic acid levels by 16-18 weeks of age (FIG. 5, left panel). They also have low circulating levels of GLP-1 (FIG. 5, right panel).

[3] = Glucose intolerance and insulin secretion in fatty-kidney (RT-SAKO) mice; assay type: in vivo
DPP4 [4] = assay: DPP4 activity in GLUTag cells (fluorometric kit ab204722); assay type: cell-based, mouse
Method: Briefly, GLUTag cells were grown to produce the recommended quantity needed for the assay according to the manufacturer's protocol (ab204722 Dipeptidyl peptidase IV Activity Assay Kit (Fluorometric)), and then the wells were treated in media containing charcoal-stripped FBS (10%), with either nothing (no treatment control), or vehicle control (0.05% DMSO), or 2.5 uM 18:1-LPA for 30 minutes, and then the inhibitors (as indicated in the graph of FIG. 17) were added to the vehicle wells and the 2.5 uM 18:1-LPA wells at 10 uM concentrations, as indicated on the graph (FIG. 17), for an additional 2 hours. Cells were then harvested according to the manufacturer's protocol, and lysed using reagents from the kit. Charcoal-stripped FBS was used to remove lipids, including LPA, from serum. Experiments were also carried out wherein the FBS was not stripped with charcoal, and the results were not different.
According to the manufacturer, dipeptidyl peptidase IV (DPP4) Activity Assay Kit (Fluorometric) (ab204722) is an assay where DPP4 cleaves a substrate to release a quenched fluorescent group, AMC (7-Amino-4-Methyl Coumarin), which can be easily detected at Ex/Em=360/460 nm. This assay is rapid, simple, sensitive, and reliable, as well as, suitable for high throughput activity screening of DPP4. This kit detects DPP4 activity as low as 3 ρU per well.

DPP4 [5] = assay: DPP4 activity in serum of C57BI/6J mice; assay type: in vivo
Method: Mice were injected with 5 mg/kg Ki16425 or control (10% DMSO in isotonic saline), then injected 10 mins later with 50 mg/kg 1-18:1-LPA or saline (vehicle control), then euthanized 30 minutes later for serum collection and analysis.
as §1, with “(for” for “(for BMS986020,”, “00842” for “00842, AM966, AM095,”, “AM966),” for “H2L51863030),”, “Ki-16425)” for “Ki-16425, and LPA2-antagonistl)”, “18:1-LPA.” for “LPA.”

insulin secretion = conditions: prior study, Rancoule et al. 2013, cited from earlier work
LPAR1 = LPAR1 (Homo sapiens, UniProt Q92633); conditions: cited from earlier work
LPAR2 = LPAR2 (Homo sapiens, UniProt Q9HBW0); conditions: cited from earlier work
LPAR3 = target: T1, LPAR3 (Homo sapiens, UniProt Q9UBY5); conditions: cited from earlier work
T1 sequence (Q9UBY5 1-353): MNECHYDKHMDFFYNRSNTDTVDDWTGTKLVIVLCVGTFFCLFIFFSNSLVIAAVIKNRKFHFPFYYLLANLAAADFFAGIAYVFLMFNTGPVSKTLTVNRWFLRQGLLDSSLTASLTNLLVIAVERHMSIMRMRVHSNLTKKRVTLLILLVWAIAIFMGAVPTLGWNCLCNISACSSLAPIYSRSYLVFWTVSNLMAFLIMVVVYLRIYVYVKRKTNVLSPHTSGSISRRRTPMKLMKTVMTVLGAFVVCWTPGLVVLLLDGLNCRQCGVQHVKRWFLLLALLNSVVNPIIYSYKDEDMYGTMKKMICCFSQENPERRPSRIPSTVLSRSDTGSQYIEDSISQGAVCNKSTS

Sequence of LPAR1 (Q92633 whole entry, species assumed): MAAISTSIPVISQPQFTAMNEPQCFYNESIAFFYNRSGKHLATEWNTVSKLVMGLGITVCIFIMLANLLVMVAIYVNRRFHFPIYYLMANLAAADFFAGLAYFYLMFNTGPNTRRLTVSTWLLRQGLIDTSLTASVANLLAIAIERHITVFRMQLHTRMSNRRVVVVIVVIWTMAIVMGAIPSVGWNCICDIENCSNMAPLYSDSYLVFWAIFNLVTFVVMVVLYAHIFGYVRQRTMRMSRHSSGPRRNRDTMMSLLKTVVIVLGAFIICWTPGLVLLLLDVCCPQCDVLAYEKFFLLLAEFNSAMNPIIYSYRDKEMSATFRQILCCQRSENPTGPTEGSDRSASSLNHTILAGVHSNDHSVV
Sequence of LPAR2 (Q9HBW0 whole entry, species assumed): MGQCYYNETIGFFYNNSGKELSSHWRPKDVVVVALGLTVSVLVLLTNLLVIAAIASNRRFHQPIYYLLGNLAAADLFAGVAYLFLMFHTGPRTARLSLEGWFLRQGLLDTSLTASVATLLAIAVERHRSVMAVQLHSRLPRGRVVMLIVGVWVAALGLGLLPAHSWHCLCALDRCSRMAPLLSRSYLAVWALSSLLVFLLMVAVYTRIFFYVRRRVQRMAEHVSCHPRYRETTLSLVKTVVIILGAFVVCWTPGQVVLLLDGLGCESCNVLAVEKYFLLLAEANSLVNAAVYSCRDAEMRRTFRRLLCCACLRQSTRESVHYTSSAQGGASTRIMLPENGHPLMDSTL

In the case of Cc1noc(-c2ccc(CSCCC(=O)O)cc2)c1NC(=O)OC(C)c1ccccc1Cl (stereo not drawn) [Ki16425], the “rescue of LPA-inhibited GLP-1 secretion by LPAR antagonist” value (GLUTag cells) is reported as “larger effect than the others; also recorded: prevented that decrease”, the “rescue of LPA-inhibited GLP-1 secretion by LPAR antagonist” value (GLUTag cells; listed as Ki-16425) is reported as “completely prevents this decrease; also recorded: restored” and the “prevention of LPA-induced decrease in plasma GLP-1” value (GLP-1 [1]) is reported as “significantly abrogates”. The “prevention of LPA-induced decrease in plasma GLP-1” value (GLP-1 [1]; listed as Ki-16425) was “partially restored; also recorded: partially prevented; also recorded: significantly prevented”, the “rescue of the fall in blood GLP-1 levels caused by LPA” value (GLP-1 [1]; antagonist 5 mg/kg i.p. 10 min before 50 mg/kg 18:1-LPA i.p., serum at 30 min (Examples 6, 8)) was “completely abrogated; also recorded: Complete rescues; also recorded: restored to normal levels” and the “blood GLP-1 with antagonist alone versus vehicles” value (GLP-1 [1]; antagonist 5 mg/kg i.p., no LPA) was “indistinguishable from mice treated only with the vehicles”. For the same molecule, the “restoration of blood GLP-1 levels in RT-SAKO mice” value (GLP-1 [2]) was “restores GLP-1 levels; also recorded: come back up to close to normal”, the “glucose intolerance and impaired insulin secretion” value [3] was “rescues” and the “effect of 18:1-LPA combined with LPAR antagonist on DPP4 activity in GLUTag cells” value (DPP4 [4]; 2.5 uM 18:1-LPA 30 minutes, then 10 uM antagonist 2 hours) was “did not significantly affect”. For the same molecule, the “effect of LPAR antagonist alone on DPP4 activity in GLUTag cells” value (DPP4 [4]; 10 uM antagonist, 2 hours) was “did not significantly affect”, the “effect of antagonist on DPP4 activity in mouse serum” value (DPP4 [5]; 5 mg/kg i.p.) was “did not significantly affect; also recorded: lack of effect; also recorded: not significantly affected” and the “effect of 18:1-LPA combined with antagonist on DPP4 activity in mouse serum” value (DPP4 [5]; antagonist 5 mg/kg i.p. then 50 mg/kg 18:1-LPA) was “did not affect”. The beta-islet cell number (insulin secretion; mice on a high-fat diet) was “increased”, the “prevention of LPA-impaired insulin secretion” value (insulin secretion) was “prevented” and the Ki (LPAR1) was 340 nM. The Ki (LPAR2) was 6500 nM, the Ki (LPAR3) was 930 nM and the “level at which LPAR3 is antagonized” value (LPAR3) was “low micromolar levels”.
